In patent US5814622A, “Compounds derived from boronic acid” (Adir et Compagnie, priority 1996, dated 1998):

Key:
[1] = system: human plasma (activated cephalin time); experiment: Anticoagulant activity: activated cephalin time (ACT) in human plasma; assay type: biochemical; conditions: 37° C., 2 min preincubation
Experimental: (§1) Anticoagulant activity, measurement of the thrombin time and the activated cephalin time in man In order to evaluate the anticoagulant activity of the compounds of the invention, the thrombin time (TT) and the activated cephalin time (ACT) were determined in samples of human plasma. An ST4 coagulometer (Diagnostica Stago, France) was used. […] The TT is determined with the Thrombin Prest reagent and the ACT with the Automat […] reagent. The inhibitor or the solvent (10 μl) is added to the plasma (90 μl), then the mixture is incubated for 2 minutes at 37° C. 100 μl of Thrombin […]) or of Automat […]) are added while starting the chronometer. […] The activity of an antagonist is evaluated by its capacity to prolong the TT and the ACT relative to the control.

human thrombin = molecular target: T1, human thrombin (Homo sapiens, UniProt P00734); experiment: Inhibition of human thrombin (fibrinogen to fibrin); assay type: biochemical; conditions: human thrombin 0.7 nM, purified human fibrinogen, 20° C., pH 7.4
T1 construct: human thrombin (Sigma, specific activity 3230 UNIH/mg); purchased Sigma

human urokinase (u-PA) = molecular target: T2, human urokinase (u-PA) (Homo sapiens, UniProt P00749); experiment: Inhibition of urokinase (u-PA); assay type: biochemical; conditions: purified human u-PA 2 nM, substrate <Glu-Gly-Arg-pNA 0.56 mM, 20° C., pH 7.4
T2 construct: purchased Sigma

[2] = system: human plasma (thrombin time); experiment: Anticoagulant activity: thrombin time (TT) in human plasma; assay type: biochemical; conditions: 37° C., 2 min preincubation
Experimental: as §1

platelets = experiment: Thrombopenic activity after oral administration to dogs; assay type: in vivo; conditions: dog
Experimental: Male or female dogs weighing 11-28 kg are treated orally with the products of the invention (5 mg/kg) or with the reference substance, DUP 714, at a concentration of 2.5 mg/kg. […] The number of platelets is also determined in each sample using a T450 counter (Coultronics).
Under the conditions of our experiments, the number of platelets before the treatment is about 300,000 platelets/μl; the TT is about 19 seconds and the ACT is about 18 seconds.

[3] = molecular target: plasminogen tissue activator (t-PA) (Homo sapiens, UniProt P00750); experiment: Inhibition of plasminogen tissue activator (t-PA); assay type: biochemical; conditions: t-PA 2 nM, substrate H-D-Ile-Pro-Arg-pNA 0.48 mM, 20° C., pH 7.4
Chain of plasminogen tissue activator (t-PA) (P00750 23-562 limits assumed): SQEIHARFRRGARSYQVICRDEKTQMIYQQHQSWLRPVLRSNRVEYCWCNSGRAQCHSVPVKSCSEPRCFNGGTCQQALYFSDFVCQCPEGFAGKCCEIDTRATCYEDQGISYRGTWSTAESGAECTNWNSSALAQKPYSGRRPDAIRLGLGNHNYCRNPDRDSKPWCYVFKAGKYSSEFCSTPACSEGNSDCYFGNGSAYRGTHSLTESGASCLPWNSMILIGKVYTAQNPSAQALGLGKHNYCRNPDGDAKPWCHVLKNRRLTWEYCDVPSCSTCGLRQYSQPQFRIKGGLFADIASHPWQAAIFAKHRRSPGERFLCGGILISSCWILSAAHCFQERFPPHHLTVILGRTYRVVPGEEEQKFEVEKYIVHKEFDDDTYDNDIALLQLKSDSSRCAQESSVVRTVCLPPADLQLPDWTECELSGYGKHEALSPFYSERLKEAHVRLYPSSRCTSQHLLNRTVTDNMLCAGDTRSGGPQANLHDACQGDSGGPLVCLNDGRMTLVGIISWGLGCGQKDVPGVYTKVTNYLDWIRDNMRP

Plasmin = molecular target: T3, Plasmin (Homo sapiens, UniProt P00747); experiment: Inhibition of plasmin; assay type: biochemical; conditions: purified human plasmin 2 nM, substrate <Glu-Phe-Lys-pNA 0.05 mM, 20° C., pH 7.4
T3 construct: Products Thrombin Plasmin t-PA u-PA; purchased Stage [sic]
T3 sequence (P00747 581-810 limits assumed): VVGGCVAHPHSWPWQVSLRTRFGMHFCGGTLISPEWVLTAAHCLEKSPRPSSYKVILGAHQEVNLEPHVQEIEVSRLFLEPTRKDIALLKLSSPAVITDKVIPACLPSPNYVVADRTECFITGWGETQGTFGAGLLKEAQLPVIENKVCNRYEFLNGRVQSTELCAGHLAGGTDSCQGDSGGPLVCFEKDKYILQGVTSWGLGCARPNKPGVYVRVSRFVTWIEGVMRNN
T3 sequence (P00747 97-580 partner limits assumed): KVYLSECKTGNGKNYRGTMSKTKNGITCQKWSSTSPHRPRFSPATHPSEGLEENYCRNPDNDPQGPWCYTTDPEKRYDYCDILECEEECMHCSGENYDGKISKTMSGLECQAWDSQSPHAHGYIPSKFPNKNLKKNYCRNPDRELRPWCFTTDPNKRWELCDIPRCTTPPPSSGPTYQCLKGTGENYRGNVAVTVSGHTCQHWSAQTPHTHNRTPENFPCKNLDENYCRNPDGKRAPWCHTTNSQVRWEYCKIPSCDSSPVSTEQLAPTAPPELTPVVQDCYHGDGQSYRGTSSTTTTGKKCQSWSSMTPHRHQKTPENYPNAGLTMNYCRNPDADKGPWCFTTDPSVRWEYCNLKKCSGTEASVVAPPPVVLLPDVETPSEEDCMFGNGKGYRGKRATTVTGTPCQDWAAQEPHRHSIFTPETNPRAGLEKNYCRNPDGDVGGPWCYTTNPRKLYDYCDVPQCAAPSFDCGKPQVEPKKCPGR

[4] = system: plasma from the dogs (TT); experiment: TT in dogs after oral administration; assay type: in vivo; conditions: dog; for Increase in TT (number of times that the initial time is increased), 1 hour / Increase in TT (number of times that the initial time is increased), 4 hours: 5 mg/kg
Experimental: (§2) Male or female dogs weighing 11-28 kg are treated orally with the products of the invention (5 mg/kg) or with the reference substance, DUP 714, at a concentration of 2.5 mg/kg. The coagulation times (TT, ACT) are determined in samples of plasma from the dogs 10 min before and 30 min, 1 hour, 2 hours, 4 hours and 6 hours after administration of the products. […] The number of platelets is also determined in each sample using a T450 counter (Coultronics).
(§3) The values show the number of times that the initial time is increased.

[5] = system: plasma from the dogs (ACT); experiment: ACT in dogs after oral administration; assay type: in vivo; conditions: dog; for Increase in ACT (number of times that the initial time is increased), 1 hour / Increase in ACT (number of times that the initial time is increased), 4 hours: 5 mg/kg
Experimental: as §2, §3

thrombin [6] = conditions: prior knowledge; cited from earlier work
thrombin [7] = conditions: literature; cited from earlier work

Row | Molecule | ACT Ctt2 (concentration which multiplies the coagulation time by 2) [1] | IC50 (human thrombin) | IC50 (human urokinase (u-PA)) | TT Ctt2 (concentration which multiplies the coagulation time by 2) [2] | Thrombopenias observed 1 hour after oral administration to dogs (platelets; 5 mg/kg, 1 hour) | IC50 [3] | IC50 (Plasmin) | Increase in TT (number of times that the initial time is increased), 1 hour [4] | Increase in TT (number of times that the initial time is increased), 4 hours [4] | Increase in ACT (number of times that the initial time is increased), 1 hour [5] | Increase in ACT (number of times that the initial time is increased), 4 hours [5] | activity via the oral route, in words (thrombin [6]) | thrombin inhibition, in words (thrombin [7]) | effect on number of platelets, in words (platelets; 2.5 mg/kg) | Thrombopenias observed 1 hour after oral administration to dogs (platelets; 2.5 mg/kg, 1 hour) | fall in number of platelets (platelets; 2.5 mg/kg, 1 hour) | increase of TT in animals, in words [4] | increase of ACT in animals, in words [5]
1 | COC12CCC(c3cccc(C(=O)N[C@@H](CCCNC(=N)N)B(O)O)c3)(CC1)CC2.Cl [Ex. 51, 1-(R)-[3-(4-Methoxybicyclo[2.2.2]oct-1-yl)benzoylamino]-4-guanidinobutylboronic acid hydrochloride] | 0.84 µM | 0.0027 µM | 5.61 µM | 0.15 µM | 0% | 1.54 µM | 0.531 µM | 22 times | 19 times | 3 times | 2 times |  |  |  |  |  |  | 
2 | N=C(N)NCCC[C@H](NC(=O)C1(C(=O)NCCc2ccccc2)CCCC1)B(O)O.O=S(=O)(O)c1ccccc1 [Ex. 83, 1-(R)-(1-Phenethylaminocarbonylcyclopentanecarboxamido)-4-guanidinobutylboronic acid benzenesulfonate] | 0.56 µM | 0.0024 µM | 1.2 µM | 0.13 µM | 0% | 1.56 µM | 6.88 µM | > 30 times | 18 times | 7 times | 4 times |  |  |  |  |  |  | 
3 | hirulog-1: Direct inhibitors of thrombin, currently in clinical development [reference compound] |  |  |  |  |  |  |  |  |  |  |  | not being active via the oral route |  |  |  |  |  | 
4 | COC12CCC(c3ccc(C(=O)N[C@@H](CCCNC(=N)N)B(O)O)cc3)(CC1)CC2.Cl [Ex. 3, 1-(R)-[4-(4-Methoxybicyclo[2.2.2]oct-1-yl)benzoylamino]-4-guanidinobutylboronic acid hydrochloride] | 1.25 µM | 0.0093 µM | > 33 µM | 0.32 µM | 0% | 0.81 µM | 1.96 µM | 16 times | 12 times | 19 times | 14 times |  |  |  |  |  |  | 
5 | Cl.N=C(N)NCCC[C@H](NC(=O)c1cccc(C23CCC(O)(CC2)CC3)c1)B(O)O [Ex. 69, 1-(R)-[3-(4-Hydroxybicyclo[2.2.2]oct-1yl)benzoylamino]-4-guanidinobutylboronic acid hydrochloride] | 0.56 µM | 0.0065 µM | > 33 µM | 0.17 µM | 0% | 0.709 µM | 0.692 µM | 18 times | 15 times | 4 times | 3 times |  |  |  |  |  |  | 
6 | Cl.N=C(N)NCCC[C@H](NC(=O)c1ccc(C23CCC(O)(CC2)CC3)cc1)B(O)O [Ex. 12, 1-(R)-[4-(4-Hydroxybicyclo[2.2.2]oct-1-yl)benzoylamino]-4-guanidinobutylboronic acid hydrochloride] | 0.78 µM | 0.0066 µM | 15.4 µM | 0.18 µM | 40% | 0.093 µM | 2.1 µM | 24 times | 19 times | > 30 times | > 30 times |  |  |  |  |  |  | 
7 | COc1cccc(CCNC(=O)C2(C(=O)N[C@@H](CCCNC(=N)N)B(O)O)CCCC2)c1.O=S(=O)(O)c1ccccc1 [Ex. 94, 1-(R)-[1-(3-Methoxyphenethylaminocarbonyl)cyclopentanecarboxamido]-4-guanidinobutylboronic acid benzenesulfonate] | 1.77 µM | 0.0039 µM | 1 µM | 0.32 µM | 0% | 1.41 µM | 4.06 µM | 17 times | 21 times | 9 times | 4 times |  |  |  |  |  |  | 
8 | N=C(N)NCCC[C@H](NC(=O)C1(C(=O)NCc2ccccc2)CCCC1)B(O)O.O=S(=O)(O)c1ccccc1 [Ex. 22, 1-(R)-(1-Benzylaminocarbonylcyclopentanecarboxamido)-4-guanidinobutylboronic acid benzenesulfonate] | 1.58 µM | 0.0049 µM | 0.78 µM | 0.30 µM | 0% | 1.35 µM | 8.63 µM | 20 times | 8 times | 6 times | 2 times |  |  |  |  |  |  | 
9 | CC(=O)N[C@H](Cc1ccccc1)C(=O)N1CCC[C@H]1C(=O)N[C@@H](CCCNC(=N)N)B(O)O [DUP 714, Ac-(D)Phe-Pro-Arg boronic acid, reference compound] |  |  |  |  |  |  |  |  |  |  |  |  | thrombin inhibitor | lowers the number of platelets appreciably and reversibly | 55% | 55±14% | appreciably increase | appreciably increase
10 | hirudin |  |  |  |  |  |  |  |  |  |  |  | not being active via the oral route |  |  |  |  |  | 
11 | Cl.N=C(N)NCCC[C@H](NC(=O)c1ccc(C23CCC(Cl)(CC2)CC3)cc1)B(O)O [Ex. 6, 1-(R)-[4-(4-Chlorobicyclo[2.2.2]oct-1-yl)benzoylamino]-4-guanidinobutylboronic acid hydrochloride] | 3.13 µM | 0.0097 µM | 30 µM | 0.75 µM | 0% | 0.29 µM | 2.04 µM | 30 times | 10 times | 4 times | 2 times |  |  |  |  |  |  | 
12 | COc1ccc(CCNC(=O)C2(C(=O)N[C@@H](CCCNC(=N)N)B(O)O)CCCC2)cc1OC [Ex. 103, 1-(R)-[1-(3,4-Dimethoxyphenethylaminocarbonyl)cyclopentanecarboxamido]-4-guanidinoboronic acid benzensulfonate] | 1.67 µM | 0.004 µM | 1.02 µM | 0.29 µM | 0% | 1.44 µM | 3.28 µM | > 30 times | 24 times | 6 times | 4 times |  |  |  |  |  |  | 
